Assay results published in PMC5712521, “Dendrogenin A drives LXR to trigger lethal autophagy in cancers” (Nature Communications, 2017).
Where a SMILES comes first, the peptide text is derived from it. The star is where a group is joined. Cbz = O=C(OCc1ccccc1)*; CH2F = FC*

How the values were obtained:
[1] = molecular target: T1, human liver-X-receptor LXRβ (Homo sapiens, UniProt P55055); assay: LXRE-luciferase gene reporter assay in HEK293T, LXRβ; type: cell-based; details: DDA analogs
T1 construct: expressed in transfected cells; host or cells: HEK293T
From the text: HEK293T were used for luciferase assays. Cells were transfected using the PolyEthylenImine (PEI) method with human retinoid-X receptor (RXRγ) and human liver-X-receptors (LXRα or LXRβ) with LXRE-Luc; RXRγ and human farnesoid X receptor (FXR) with EcRE-Luc; RXRγ and human steroid and xenobiotic X receptor (SXR) with DR4-Luc; RXRγ and human peroxisome proliferator activated receptors (PPARα, or PPARγ) with PPRE-Luc; RXRγ and human retinoic acid receptor (RARα) with DR1-Luc; human AHR and human ARNT with a DRE-Luc; human vitamin D receptor (VDR) with VDRE-Luc. Cells were transfected with plasmids encoding human glucocorticoid receptor (GR), progesterone receptor (PR), or androgen receptor (AR) with MMTV-Luc; or estrogen receptors (ERα and ERβ) with an ERE-Luc. The day after transfection with the luciferase reporter gene construct, cells were seeded in 12-well plates (50,000 cells per well). […] Luciferase activity was measured using the luciferase assay reagent (Promega), according to the manufacturer’s instructions. Protein concentrations were measured using the Bradford method to normalize luciferase activities. For each condition, luciferase activity was calculated from the data of three independent wells.

[2] = molecular target: T2, human liver-X-receptor LXRα (Homo sapiens, UniProt Q13133); assay: LXRE-luciferase gene reporter assay in HEK293T, LXRα; type: cell-based; details: DDA analogs
T2 construct: expressed in transfected cells; host or cells: HEK293T
T2 sequence (Q13133 1-447): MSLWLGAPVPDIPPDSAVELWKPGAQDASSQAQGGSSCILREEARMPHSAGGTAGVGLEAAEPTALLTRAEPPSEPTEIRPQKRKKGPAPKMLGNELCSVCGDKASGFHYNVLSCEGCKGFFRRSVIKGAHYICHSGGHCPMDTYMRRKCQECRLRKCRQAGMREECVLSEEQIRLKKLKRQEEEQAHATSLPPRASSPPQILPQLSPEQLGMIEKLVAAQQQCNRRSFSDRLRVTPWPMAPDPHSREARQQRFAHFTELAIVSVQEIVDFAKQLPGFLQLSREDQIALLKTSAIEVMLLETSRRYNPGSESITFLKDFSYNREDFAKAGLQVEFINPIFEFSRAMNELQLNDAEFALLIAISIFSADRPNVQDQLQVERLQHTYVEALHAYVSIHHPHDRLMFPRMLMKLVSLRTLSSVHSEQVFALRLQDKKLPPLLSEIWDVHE
T2 sequence (P48443 1-463 partner): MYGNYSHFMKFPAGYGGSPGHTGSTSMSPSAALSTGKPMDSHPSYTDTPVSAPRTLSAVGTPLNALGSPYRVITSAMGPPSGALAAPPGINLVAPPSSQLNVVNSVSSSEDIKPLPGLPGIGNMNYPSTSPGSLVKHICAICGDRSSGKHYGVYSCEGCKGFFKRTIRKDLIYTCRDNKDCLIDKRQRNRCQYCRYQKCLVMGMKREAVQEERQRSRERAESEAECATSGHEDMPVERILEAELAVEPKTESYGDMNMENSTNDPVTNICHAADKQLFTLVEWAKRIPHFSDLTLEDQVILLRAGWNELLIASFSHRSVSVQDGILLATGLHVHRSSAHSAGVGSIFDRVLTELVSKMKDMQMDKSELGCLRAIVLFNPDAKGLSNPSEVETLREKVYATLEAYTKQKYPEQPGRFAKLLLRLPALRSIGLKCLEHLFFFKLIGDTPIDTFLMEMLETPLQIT
From the text: HEK293T were used for luciferase assays. Cells were transfected using the PolyEthylenImine (PEI) method with human retinoid-X receptor (RXRγ) and human liver-X-receptors (LXRα or LXRβ) with LXRE-Luc; RXRγ and human farnesoid X receptor (FXR) with EcRE-Luc; RXRγ and human steroid and xenobiotic X receptor (SXR) with DR4-Luc; RXRγ and human peroxisome proliferator activated receptors (PPARα, or PPARγ) with PPRE-Luc; RXRγ and human retinoic acid receptor (RARα) with DR1-Luc; human AHR and human ARNT with a DRE-Luc; human vitamin D receptor (VDR) with VDRE-Luc. Cells were transfected with plasmids encoding human glucocorticoid receptor (GR), progesterone receptor (PR), or androgen receptor (AR) with MMTV-Luc; or estrogen receptors (ERα and ERβ) with an ERE-Luc. The day after transfection with the luciferase reporter gene construct, cells were seeded in 12-well plates (50,000 cells per well). After 6 h, cells were then treated with the following ligands dissolved in ethanol: 10 nM estradiol (E2) for ERα and ERβ; 10 nM R1881 for AR; 10 nM R5020 for PR; 10 nM dexamethasone for GR; 10 µM fenofibrate for PPARα; 100 nM rosiglitazone (BRL 49653) for PPARγ; 100 nM cis-retinoic acid (cRA) for RAR; 10 nM dioxine for AHR, 10 µM rifampicine for SXR and 10 µM 22(R) hydroxycholesterol (22(R)HC) for LXRα and LXRβ. At the end of each treatment, cells were lysed in 100 μl lysis buffer (Promega). Luciferase activity was measured using the luciferase assay reagent (Promega), according to the manufacturer’s instructions. Protein concentrations were measured using the Bradford method to normalize luciferase activities. For each condition, luciferase activity was calculated from the data of three independent wells.

[3] = test system: B16F10 cells; assay: DDA-induced cytotoxicity (cell death); type: cell-based
Method: (§1) Melanoma cells were seeded into 6-well plates at 60,000 cells per well and AML cells at 250,000 cells/ml. The cells were then treated with control solvent vehicle (1/1000 ethanol in water) or DDA. Where indicated, treated cells were incubated in the presence or absence of each inhibitor for time shown. Cell death was determined by the trypan blue exclusion assay. Cells were scraped and resuspended in trypan blue solution (0.25% (w/v) in PBS) and counted in a Malassez cell under light microscopy. Cell viability was then quantified by counting viable (trypan blue-negative) and dead cells (trypan blue-positive).
(§2) Supplementary Fig. 1. a DDA inhibited m elanom a colony form ation. Melanom a cells were […]
(§3) a 0.5% solution of crystal violet in water and analyzed by microscopy. Images are representative of 5 independent experiments. b Evaluation of DDA-induced cytotoxicity (cytotox) and clonogenicity (clono) inhibition in a subset of human (H) and mouse (M) m elanom a cell lines. T he BRaf status in m elanom a cells lines is shown. […]

[4] = test system: SKMEL-28 cells; assay: DDA-induced cytotoxicity (cell death); type: cell-based
Method: as §1, §2, §3

[5] = test system: AML cells; assay: Immunoblot of caspase-3 and PARP in AML cells; type: cell-based, human; details: 50 µM z-VAD-fmk alone (0 µM DDA), 24 h
Method: Immunoblotting was carried out as described previously. Proteins were separated on SDS-PAGE gels, electro-transferred onto polyvinylidene difluoride membranes and incubated overnight at 4 °C with the following antibodies: anti-Atg3, anti-Atg5 (D1G9), anti-Atg7 (D12B11), anti-Beclin (D40C5), anti-caspase-3 (Cell Signaling), anti-Bcl-2 (Millipore), anti-Bax (Millipore), anti-LC3 (Sigma-Aldrich), anti-LXRα (SantaCruz), anti-LXRβ (SantaCruz), anti-Nur77 (Active motif), anti-NOR1 (R&D systems), anti-PARP (Cell Signaling), anti-Vps34 (Cell Signaling), or anti-Actin (Millipore). For visualization, an ECL plus kit (Amersham Biosciences) was used, and chemiluminescence was measured by autoradiography (Supplementary Fig. 9). Specific bands were quantified with ImageQuant software.
Supplementary Fig. 6. […]
AML cells treated with DDA for 24 h in the absence or presence of 50 µM z- VAD-fmk (a
caspase inhibitor). j Effect of z-VAD-fmk on DDA-induced c ytotox icit y in KG1 and HL60 cells. […]
Images are
representative of 3 independent experim ents.

T1 sequence (P55055 whole entry, one chain of several): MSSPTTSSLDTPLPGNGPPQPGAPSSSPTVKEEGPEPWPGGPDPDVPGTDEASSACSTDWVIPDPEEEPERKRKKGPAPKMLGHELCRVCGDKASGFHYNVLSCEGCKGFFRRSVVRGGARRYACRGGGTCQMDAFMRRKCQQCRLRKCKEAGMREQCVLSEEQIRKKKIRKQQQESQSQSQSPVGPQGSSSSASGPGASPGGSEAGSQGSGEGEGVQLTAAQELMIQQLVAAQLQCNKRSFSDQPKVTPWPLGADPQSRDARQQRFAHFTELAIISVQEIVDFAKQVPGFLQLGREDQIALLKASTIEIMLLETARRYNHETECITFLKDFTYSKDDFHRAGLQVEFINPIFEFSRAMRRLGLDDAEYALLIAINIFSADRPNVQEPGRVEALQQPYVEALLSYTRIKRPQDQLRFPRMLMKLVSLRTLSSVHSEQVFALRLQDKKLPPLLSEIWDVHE

With CC(C)CCCC(C)C1CCC2C3C[C@@H](NCCO)[C@@]4(O)C[C@@H](O)CC[C@]4(C)C3CC[C@]12C (stereo partly shown) [C41] the “LXRβ-dependent agonistic or antagonistic activity” value [1] was “antagonist-agonist switch” and the “LXRα-dependent agonistic or antagonistic activity” value [2] was “switch from antagonist to agonist activity”.
CC(C)CCCC(C)C1CCC2C3CC(n4cncc4CCN)C4(O)CC(O)CCC4(C)C3CCC12C (stereo not shown) [C17] was tested, and the “cytotoxicity and clonogenicity inhibition” value [3] was “inactive”, the “cytotoxicity and clonogenicity inhibition” value [4] was “inactive” and the “LXRα-dependent agonistic or antagonistic activity” value [2] was “switch from antagonist to agonist activity”.
With COC(=O)C[C@H](NC(=O)[C@H](C)NC(=O)[C@@H](NC(=O)OCc1ccccc1)C(C)C)C(=O)CF [z-VAD-fmk, reference compound] (Cbz-Val-Ala-Asp(OMe)-CH2F) the “cleaved PARP, densitometry” value [5] was 0.6 and the “cleaved casp 3, densitometry” value [5] was 0.4.
